From patent US20250127774A1, “COMPOUNDS FOR LABELLING NUCLEIC ACID AND USES THEREOF” (THE ROYAL INSTITUTION FOR THE ADVANCEMENT OF …, priority 2022, published 2025)
Where a name gives a salt, the structure may show the parent alone. Read-outs that look alike come from different tables or passages of the source.

How the values were obtained:
[1] = Photophysical properties of AO-495-tet-py before and after reaction with 5-norbornene-2 methanol; assay type: physicochemical; details: for φ: Rhodamine 6G standard; for λmax(Fluor.): excitation at 488 nm
Description: The absorbance and fluorescence intensity (excitation at 488 nm) of AO-495-TET-py in different solvents (water, PBS and acetonitrile) was measured in a quartz cuvette (light path 1 cm) using a SpectraMax M5 plate reader (Molecular Devices, Sunnyvale, CA, USA). For AO-495-tet-py, samples for photophysical characterization were prepared directly from stock solution (10 mM in DMSO) by gradient dilution. For reaction of AO-495-tet-py with 5-norbornene-2 methanol, 20 μL AO-495-tet-py stock solution (in DMSO) was mixed with 2 μL 5-norbornene-2 methanol (80× excess) in room temperature for 24 h to ensure full conversion. 3 μL of the reaction mixture was diluted in to the indicated solvent to make a […] solution for following photophysical characterization. Rhodamine 6G in ethanol was used as fluorescence standard (φ=0.94).

[2] = Photophysical measurements (quantum yield) of PINK and PINK-VdU-ox; assay type: physicochemical; details: excitation 488 nm, Rhodamine 6G standard; PINK in aqueous and aprotic solvents, 6 depending on the solvent used
Description: PINK (4) undergoes a highly fluorogenic and regioselective IEDDA reaction with VdU (5) to give “PINK-VdU-ox” (6) as a single isomer in a 76% isolated yield after 7d at 60° C. (Scheme 1). The slow rate of this non-templated reaction (Kapp=0.01 M^−1 s^−1, FIG. 5) is due to the combination of an unstrained terminal alkene and unactivated tetrazine.^[49] Over the course of the reaction, a ˜100-fold increase in fluorescence was observed (FIG. 3, c). With a quantum yield (φF)<0.2%, PINK (4) is essentially non-fluorescent in both aqueous and aprotic solvents (FIG. 6).
Highly viscous solvents, including glycerol and polyethylene glycol (PEG 200) induced higher fluorescence of 6, likely by restricting bond rotation and thus suppressing formation of a non-emissive, twisted intramolecular charge transfer (TICT) state.^[50]
Photophysical Measurements. Stock solutions (1-10 mM) of investigated compounds were prepared in DMSO and stored at −20° C. DMSO concentrations were less than 1% after dilution into the respective solvent/aqueous buffer. Measurements were collected on a SpectraMax M5 plate reader (Molecular Devices, Sunnyvale, CA, USA) in 1 cm path-length quartz cuvettes. Quantum yields were obtained by excitation at 488 nm using Rhodamine 6G ((=0.94) in EtOH (n=1.3624) as a fluorescent standard.^[1] Quantum yields were calculated using the equation I: […]

Hela cells = assay: Pulse-chase labeling with EdU; assay type: cell-based; details: 20 μM VdU 16 h, 1 μM PINK 4 h, 10 μM EdU 4 h
Description: To investigate the potential impact of VdU-PINK labeling on subsequent DNA synthesis, a pulse-chase experiment was performed with 5-ethynyl-2′-deoxyuridine (EdU) (FIG. 14, a). Hela cells were grown in cell media containing 20 μM VdU for 16 h, aspirated, treated with 1 μM PINK for 4 h, aspirated and treated with 10 μM EdU for 4 h. After fixation and DNA denaturation, cells were stained with AF488-azide (488 nm laser; emission 495-540 nm), and total cellular DNA was counterstained with Hoechst 33342 (405 nm laser; emission 410-480 nm). The “No VdU” cells were incubated with 1 μM PINK but not VdU. PINK+ and EdU+ “double positive” cells were observed as having co-localized nuclear staining. […] Therefore, VdU and PINK were used to track DNA synthesis and cellular division using live-cell, time-lapsed imaging. For optimal live-cell visualization, cells were incubated with 100 µM VdU for 23 h and subsequently labeled with 1 μM PINK for 4 h prior to imaging, allowing for the recording of full mitotic cycles over 2.5 hours (FIG. 14, b). Live cell images were acquired using a confocal microscope equipped with a stage-top incubator at 37° C. and at 5% CO2.
Pulse-Chase Labeling. In each well of a 24-well plate, one 10 mm diameter cover slide was placed. Hela cells were seeded at 1.2×10^5 cells per mL and allowed to settle overnight (22 h). […]

Jurkat cells [3] = assay: Resazurin single toxicity assay; assay type: cell-based; details: Homo sapiens, compound alone
Description: (§1) Resazurin assays were carried out to test the effectiveness of VdU, VdA and PINK alone in MV4-11 and Jurkat. The resazurin reduction assay is a colorimetric assay which allows to determine a cell's viability based on its metabolic activities.^26 When the cells are alive, the resazurin gets reduced by NADH into its resorufin form by cellular respiration, which is pink and highly fluorescent.^26 When the cells are dead or their metabolisms are impaired, the resazurin remains in its oxidized form, which is blue and has low fluorescence.^26 The cells can then be imaged using a spectrometer to determine how viable they are after each treatment.
(§2) Resazurin Single toxicity assay. MV4-11 and Jurkat cells were seeded in 96-well plates at a density of 20 000 cells/well, in triplicates. The cells were treated with each nucleoside (VdU/VdA) alone diluted in fresh media in 1:4 serial dilutions (˜0.01% DMSO) at concentrations of 1000-0 μM. The cells were treated with PINK alone diluted in fresh media in 1:2 serial dilutions (˜1% DMSO) at concentration of 100-0 μM. The cells were then incubated for 24 h and 72h. 10 μL of 870 μM resazurin was added per well, and incubated for 2-5 hours. After incubation, the fluorescence intensity at 590 nm (excitation=560 nm) was measured using a SpectraMax M5 plate reader.

MV4-11 cells [4] = assay: Resazurin single toxicity assay; assay type: cell-based; details: Homo sapiens, compound alone
Description: as §1, §2

MV4-11 and Jurkat = assay: Resazurin single toxicity assay, summary over both cell lines; assay type: cell-based; details: Homo sapiens, after 24 h and 72h, read-out: IC50 summarised over both cell lines
Description: as §1
Overall, VdU presented itself as a good candidate for the combination therapy with PINK due to its low toxicity in the two leukemia cell lines.
as §2

Jurkat cells [5] = assay: Resazurin combination toxicity assay; assay type: cell-based; details: Homo sapiens
Description: (§3) From the single toxicity experiment, it was determined that the optimal subtoxic concentration of PINK to be used for the combination toxicity assays would be 1 μM. To test how effective the vinyl-nucleosides (VdU/VdA) in combination with PINK are at killing the cells compared to the vinyl-nucleosides alone, another resazurin reduction assay was carried out.
(§4) To determine if it is possible to treat the leukemia cells with the vinyl-nucleosides and PINK simultaneously, instead of adding them sequentially, another resazurin reduction assay using the same concentrations of each compound as in the previous combination experiment was carried out, where instead the vinyl-nucleosides and PINK were added on the same day instead of on two consecutive days.
(§5) Resazurin Combination toxicity assays. MV4-11, MOLM-13 and Jurkat cells were seeded in 96-well plates at a density of 20 000 cells/well, 25 000 cells/well and 30 000 cells/well, respectively, in triplicates. For the sequential addition, the cells were first treated with the nucleosides (VdU/VdA) diluted in fresh media in 1:4 serial dilutions (˜0.01% DMSO) at concentrations of 500-0 μM, and incubated overnight. 24h post nucleoside addition, the cells were treated with 1 μM PINK diluted in fresh media (˜1% DMSO), and incubated for 24-72h. The cells were treated with resazurin, incubated and measured, as described above. For the simultaneous addition, the cells were treated with nucleosides and PINK on the same day at the same concentrations as describes above, and incubated for 24-72h.

MV4-11 cells [6] = assay: Resazurin combination toxicity assay; assay type: cell-based; details: Homo sapiens
Description: as §3, §4, §5

MOLM-13 cells [7] = assay: Resazurin combination toxicity assay; assay type: cell-based, human; details: variable VdU/VdA alone or with 1 μM PINK added 24 h post nucleoside addition, read-out: IC50 value (48 h) for sequential addition
Description: as §3, §5

MOLM-13 cells [8] = assay: Cell counting assay (Trypan Blue); assay type: cell-based, human; details: MOLM-13, 5 μM nucleoside, 1 μM PINK
Description: To confirm the cytotoxicity results obtained from the resazurin assays, a cell counting assay was conducted using Trypan Blue. It is an azo dye allows to discriminate between viable cells and dead cells, since dead cells will take in the dye, while viable cells will remain white. 28 From the resazurin assays, and after some optimization based on cell sensitivity to the vinyl-nucleosides, it was determined that […] and 5 μM of vinyl-nucleosides alone and in combination with 1 μM of PINK were two interesting concentrations to explore in Jurkat, MV4-11, and MOLM-13 cells. Cells were incubated with 5 μM or 10 μM of each nucleoside overnight (Day 0), and 1 μM of PINK was added for the combinations and PINK alone 24h post nucleoside incubation (Day 1). The cells were counted every 24h.
Cell Counting Assay. Jurkat, MV4-11 and MOLM-13 cells were seeded in 12-well plates at a density of 500 000 cells/mL, 175 000 cells/mL and 375 000 cells/mL, respectively, in duplicates. The cells were incubated overnight in fresh media containing 10 μM (Jurkat) or 5 μM (MV4-11 and MOLM-13) of each nucleoside (˜0.01% DMSO). 24h post nucleoside addition, 1 μM of PINK (˜0.01% DMSO) were added to the respective wells and incubated for 24 h. The cells were counted using a cell counter (BIO RAD TC20) to determine the percentage of viable cells and the cell concentration. The cells were counted every 24h using Trypan Blue in a 1:1 ratio.

[9] = 48 h, variable VdU/VdA alone or with 1 μM PINK added on the same day, read-out: IC50 value (48 h) for simultaneous addition
[10] = variable VdU/VdA alone or with 1 μM PINK added 24 h post nucleoside addition, read-out: IC50 value (48 h) for sequential addition

CN(C)c1ccc2cc3ccc(N(C)C)cc3[n+](CCCc3nnc(-c4ccccn4)nn3)c2c1 [AO-495-tet-py, (10-(6-(pyridin-2-yl)-1,2,4,5-tetrazin-3-yl)propyl)-3,6-bis(dimethylamino)acridinium trifluoroacetate)]
λmax(Abs) ([1]; MeCN): 498 nm | φ ([1]; MeCN): 0.0075 | λmax(Fluor.) ([1]; MeCN): 525 nm | λmax(Abs) ([1]; PBS): 500 nm | φ ([1]; PBS): 0.0148 | λmax(Fluor.) ([1]; PBS): 525 nm | λmax(Abs) ([1]; Water): 500 nm | φ ([1]; Water): 0.0063 | λmax(Fluor.) ([1]; Water): 525 nm

Cc1cc(-c2cn([C@H]3C[C@H](O)[C@@H](CO)O3)c(=O)[nH]c2=O)c(-c2ccc3cc4ccc(N(C)C)cc4nc3c2)nn1 [PINK-VdU-ox]
quantum yield (φF) [2]: 3.5-19% | impact of VdU-PINK labeling on subsequent DNA synthesis / cell cycle (Hela cells): did not cause cell cycle arrest

C=Cc1cn([C@H]2C[C@H](O)[C@@H](CO)O2)c2ncnc(N)c12 [VdA, 7-vinyl-7-deaza-2′-deoxyadenosine]
IC50 (Jurkat cells [3]; 24 h incubation, read-out: IC50 value (24 h)): 68 µM | IC50 (Jurkat cells [3]; 72 h incubation, read-out: IC50 value (72 h)): 46 µM | IC50 (MV4-11 cells [4]; MV4-11, 24 h incubation, read-out: IC50 value (24 h)): 32 µM | IC50 (MV4-11 cells [4]; MV4-11, 72 h incubation, read-out: IC50 value (72 h)): 58 µM | IC50 (MV4-11 and Jurkat): ~50 µM | IC50 (Jurkat cells [5]; [9]): 72 µM | IC50 (Jurkat cells [5]; [10]): 46 µM | IC50 (MV4-11 cells [6]; [9]): 37 µM | IC50 (MV4-11 cells [6]; [10]): 25 µM | IC50 (MOLM-13 cells [7]; Homo sapiens, MOLM-13, MOLM-13): 3 µM | IC50 (MOLM-13 cells [7]; MOLM-13): 2.6 µM | cell concentration (cell growth) (MOLM-13 cells [8]): seem to inhibit cell growth
